{
  "source": "patent US20260102400A1",
  "about": "“PHARMACEUTICAL COMPOSITION FOR DISRUPTING TUMOR BLOOD VESSELS” (SAMSUNG MEDICAL FOUNDATION, priority 2022, published 2026)",
  "key": {"[1]": {"tested_on": "TSP-1 protein", "assay": "Western blot of TSP-1 protein expression in HUVEC", "type": "cell-based, human", "details": "HUVECs; prolonged exposure and higher 5-FU concentrations; FIG. 3", "experimental": "Western blot analysis was conducted to confirm the expression of TSP-1 protein in the HUVEC (human umbilical vein endothelial cell) cell line.\nHUVECs cultured in petri dishes were lysed using a buffer containing 50 mM Tris (pH 8.0), 150 mM NaCl, 1% Nonidet P-40, 0.5% sodium deoxycholate (SDC), 0.1% sodium dodecyl sulfate (SDS), and 1× protease inhibitor cocktail. The lysates were incubated on ice for 30 minutes, followed by centrifugation at 14,000 g for 10 minutes to collect the supernatant.\nProtein quantification was performed using a bicinchoninic acid (BCA) protein assay kit (Pierce Chemical, Rockford, IL, USA). A total of 30 μg of protein was subjected to electrophoresis on a 10% SDS-polyacrylamide gel and subsequently transferred onto a nitrocellulose membrane. The membrane was blocked with blocking milk for 1 hour, then incubated with the same TSP-1 antibody used for immunostaining at room temperature for 1 hour. After three washes with Tris buffer containing 0.1% Tween 20 at 15-minute intervals, the membrane was incubated with a secondary antibody specific to the primary antibody at room temperature for 1 hour. The detection was carried out using a chemiluminescent substrate (Amersham Life Science, Arlington Heights, IL, USA).\nProtein extracted from HUVECs was used as a positive control."}, "[2]": {"assay": "Pathological changes in subcutaneous muscle layer after injection (H&E)", "type": "in vivo, nude mice", "set-up": "key: 0=absent; 1=mild; 2=moderate; 3=severe", "details": "5 mg pH 8.4 5-FU near the tumor; 24 hours; degeneration, necrosis, inflammation, fibrosis", "description": "To observe pathological changes in the surrounding tissue after injecting 5 mg of pH 8.4 5-FU near the tumor, the drug was locally administered to nude mice. After 24 hours, tissues, including muscle layers, were collected and subjected to H&E staining to examine degeneration, necrosis, inflammation, and fibrosis in the muscle layer. The extent of each pathological change was scored as follows: 0=absent, 1=mild, 2=moderate, 3=severe, and the results are shown in FIG. 10A and FIG. 10B. FIG. 10A presents observations at 40× magnification, while FIG. 10B presents observations at 100× magnification."}, "[3]": {"tested_on": "HUVECs", "assay": "LDH release assay in HUVECs", "type": "cell-based, human", "details": "1 mM, 5 mM and 10 mM 5-FU, P<0.05, FIG. 4", "experimental": "To investigate whether the administration of 5-fluorouracil (5-FU) enhances apoptosis in endothelial cells, an LDH release assay was conducted in human umbilical vein endothelial cells (HUVECs). Cytotoxicity was assessed based on the amount of lactate dehydrogenase (LDH) released due to cell membrane damage. The released LDH was quantified using an LDH assay kit (EZ-LDH1000; DoGenBio, Seoul, Korea) according to the manufacturer's protocol.\nHUVECs (5×10^4 cells/well) were seeded in a 96-well polystyrene plate and incubated at 37° C. for 24 hours. LDH substrate was added to each well, followed by an additional incubation at 37° C. for 10 minutes. The plate was centrifuged at 600 g for 5 minutes. A 10-μL aliquot of the supernatant was transferred from the culture plate wells to an analysis plate. Subsequently, 100 μL of LDH reaction mixture reagent was added to the supernatant in each well of the analysis plate. After a 30-minute reaction, absorbance was measured at 450 nm using a microplate reader (Model 680; Bio-Rad). The cytotoxicity of 5-FU on HUVECs was determined based on the amount of LDH released."}, "[4]": {"tested_on": "HUVECs", "assay": "MTS cell proliferation assay, 5-FU at different pH", "type": "cell-based, human", "details": "5 μM 5-FU, pH 6.4, 7.4, 8.4, 9.0, FIG. 5", "experimental": "To evaluate the cytotoxic effect of 5-fluorouracil (5-FU) in human umbilical vein endothelial cells (HUVECs) under different pH conditions, an MTS cell proliferation assay was performed. The cytotoxicity of 5 μM 5-FU at various pH levels in HUVECs was assessed using the CellTiter 96 AQueous One Solution Cell Proliferation Assay (Promega Corp., Madison, WI, USA).\nHUVECs were seeded in a 96-well plate at a density of 5×10^3 cells/well and incubated for 24 hours. Subsequently, the cells were cultured for an additional 24 hours in Dulbecco's Modified Eagle's Medium (DMEM) containing 5-FU at different pH conditions (pH 6.4, 7.4, 8.4, and 9.0). Following the incubation, the cells were washed twice with phosphate-buffered saline (PBS), after which 100 μL of fresh DMEM growth medium was added, followed by an additional 48-hour incubation. The medium was then replaced with 100 μL of fresh DMEM growth medium, and 20 μL of 3-(4,5-dimethylthiazol-2-yl)-5-(3-carboxymethoxyphenyl)-2-(4-sulfophenyl)-2H-tetrazolium (MTS) solution (Promega Corp., Madison, WI, USA) was added. After an additional 2-hour incubation, the absorbance was measured at 490 nm using a microplate reader (Model 680, BIO-RAD; Spark, TECAN, CA, USA)."}, "[5]": {"tested_on": "CD31", "assay": "CD31 immunohistochemical staining of gastric tumor mass after local injection", "details": "one week after injection"}, "[6]": {"tested_on": "VEGF", "assay": "VEGF immunohistochemical staining of gastric tumor mass after local injection", "details": "one week after injection"}, "[7]": {"tested_on": "HUVECs", "details": "various concentrations of L-NMMA, FIG. 11", "experimental": "HUVECs were seeded at a density of 5×10^3 cells/well in a 96-well plate and incubated for 24 hours. Subsequently, the cells were incubated in DMEM medium containing various concentrations of L-NMMA for 24 hours. The cells were then washed twice with PBS, followed by the addition of 100 μL of fresh growth DMEM medium, and incubated for an additional 48 hours. The medium was replaced with 100 μL of fresh growth DMEM medium, after which 20 μL of 3-(4,5-dimethylthiazol-2-yl)-5-(3-carboxymethoxyphenyl)-2-(4-sulfophenyl)-2H-tetrazolium (MTS) was added. After an additional 2-hour incubation, absorbance at 490 nm was measured using a BIO-RAD Model 680 microplate reader (Spark, TECAN, CA, USA)."}, "[8]": {"tested_on": "human gastric cancer cells", "assay": "Human gastric cancer xenograft, alkaline 5-FU injected adjacent to tumor", "type": "in vivo, nude mice", "details": "5 mg 5-FU pH 8.4, adjacent to tumor, three times at one-week intervals; P<0.05", "description": "The animals used in the experiment were six male nude mice (Crj: BALB/c-nu/nu mice, male) aged five weeks and weighing approximately 30 grams, purchased from Orient. The mice were subjected to a one-week acclimation period in the laboratory before use. Each nude mouse was subcutaneously xenografted with 5×10^6 human gastric cancer cells suspended in 100 μL of PBS on the dorsal subcutaneous layer. The tumor size was periodically measured, and when it reached a diameter of 1 cm, the drug administration experiment was conducted.\nThe experimental animals were divided into two groups. One group served as the control group, receiving only physiological saline, while the other group was administered 5 mg of 5-FU at pH 8.4. The drug was injected 0.2 cc adjacent to the tumor three times at one-week intervals. After one month, the major and minor axes of the tumors growing on the dorsal epidermis were measured."}, "[9]": {"tested_on": "human gastric cancer cells", "assay": "Human gastric cancer xenograft, bevacizumab", "type": "in vivo, nude mice", "description": "The animals used in the experiment were three male nude mice (Crj: BALB/c-nu/nu, male), each weighing approximately 30 g and five weeks old, produced by Orient. The mice underwent a one-week acclimatization period in the laboratory before use. Human gastric cancer cells (5×10^6 cells/100 μL in PBS) were xenografted into the subcutaneous fat layer on the dorsal side of each nude mouse. The tumor size was measured periodically, and drug administration was initiated when the tumor reached a diameter of 1 cm.\nThe experimental animals were administered 1 mg of bevacizumab by injecting 0.2 cc adjacent to the tumor three times at one-week intervals."}, "[10]": {"details": "5 mg 5-FU at base of tumor, relative to total tissue area"}},
  "note": "Entries after “also recorded” stand apart in the source; their conditions may differ.",
  "data": [
    {"molecule": "O=c1[nH]cc(F)c(=O)[nH]1", "note": "[5-FU, 5-fluorouracil]", "values": [
      {"measurement": "TSP-1 expression", "setting": "[1]", "value": "increased"},
      {"measurement": "pathological changes in subcutaneous muscle layer at injection site (score)", "setting": "[2]", "value": 0},
      {"measurement": "amount of LDH released", "setting": "[3]", "value": "increased in a time-dependent manner"},
      {"measurement": "cytotoxic effect according to pH", "setting": "[4]", "value": "significantly greater toxicity under alkaline conditions compared to neutral or acidic 5-FU"},
      {"measurement": "Immunopositive area (CD31)", "setting": "[5]; 5 mg 5-FU at base of tumor", "value": 257079.525, "unit": "μm^2"},
      {"measurement": "Immuno-positive area (%) (CD31)", "setting": "[5]; [10]", "value": 0.54, "unit": "%"},
      {"measurement": "stained area (ratio) of CD31 compared to control group", "setting": "[5]; 5 mg 5-FU", "value": "lower; also recorded: smaller"},
      {"measurement": "distribution of necrotic tissue compared to control group", "setting": "[5]; 5 mg 5-FU, tumor mass", "value": "increased"},
      {"measurement": "Immunopositive area (VEGF)", "setting": "[6]; 5 mg 5-FU at base of tumor", "value": 46077.917, "unit": "μm^2"},
      {"measurement": "Immuno-positive area (%) (VEGF)", "setting": "[6]; [10]", "value": 0.10, "unit": "%"},
      {"measurement": "stained area of VEGF compared to control group", "setting": "[6]; 5 mg 5-FU", "value": "smaller"}
    ]},
    {"molecule": "CNC(=N)NCCC[C@H](N)C(=O)O", "note": "[L-NMMA, NG-Monomethyl-L-arginine]", "values": [
      {"measurement": "cell viability, L-NMMA alone", "setting": "[7]", "value": "reduction in cell viability"}
    ]},
    {"molecule": "O=c1[nH]cc(F)c(=O)[nH]1", "note": "[alkaline 5-FU, 5-fluorouracil]", "values": [
      {"measurement": "tumor size compared to control group that received PBS", "setting": "[8]", "value": "reduced"},
      {"measurement": "tumor size four weeks after drug administration compared to before injection", "setting": "[8]", "value": "decreased"}
    ]},
    {"molecule": "bevacizumab: recombinant humanized monoclonal antibody designed to inhibit vascular endothelial growth factor (VEGF)", "values": [
      {"measurement": "tumor size four weeks after drug administration compared to before injection", "setting": "[9]; 1 mg bevacizumab adjacent to tumor, three times at one-week intervals, P>0.05", "value": "remained nearly unchanged"},
      {"measurement": "tumor size in later follow-up", "setting": "[9]; 1 mg bevacizumab, months after the four-week reading", "value": "did not change for the following two months and began to increase in the third month"}
    ]}
  ]
}
